From ChEMBL document CHEMBL1125698, “Using theoretical descriptors in quantitative structure-activity relationships: some toxicological indices” (J Med Chem, 1991)

What was measured:
[1] = The toxicity of compound was determined using Konemann's Industrial Pollutants Toxicity Test
[2] = Toxicity determined using Tadpole Narcosis Test; settings: frog
[3] = Toxicity determined using Golden Orfe Fish Test; settings: leuciscus idus
[4] = test system: Lithobates pipiens; assay: Inhibition of Rana pipiens muscle activity.; assay type: functional, frog, Muscle tissue
[5] = Toxicity determined using Konemann's Industrial Pollutants Toxicity Test; settings: fish
[6] = Toxicity determined using Microtox Test; assay type: ADME, Bacteria

CCOCC [ETHER]
Log LC50 [1]: 4.46 | Log C [2]: -1.389 | Log LC50 [3]: -1.722 | Log MBC [4]: 1.93

C1CCOC1 [TETRAHYDROFURAN]
Log LC50 [3]: -1.815

c1ccc2ccccc2c1
Log C [2]: -4.225

CCCO [PROPANOL]
Log C [2]: -1.021 | Log LC50 [3]: -1.972 | Log MBC [4]: 2.4

CC(Cl)CCl (stereo not given)
Log LC50 [5]: 3.01

CBr [BROMOMETHANE]
Log C [2]: -2.263

CCCCCO [1-PENTANOL]
Log MBC [4]: 1.2

OC1CCCC1 [CYCLOPENTANOL]
Log LC50 [3]: -0.97

C[N+](=O)[O-] [NITROMETHANE]
Log C [2]: -1.08

ClCCl [METHYLENE CHLORIDE]
Log LC50 [5]: 3.54

Cc1cc(Cl)c(Cl)cc1Cl
Log LC50 [5]: 0.94

O=C1CCCCC1 [CYCLOHEXANONE]
Log LC50 [3]: -0.66

CCCC(O)CC (stereo not given) [HEXAN-3-OL]
Log LC50 [3]: -0.363

CCCl [ETHYL CHLORIDE]
Log C [2]: -1.655

c1ccncc1 [PYRIDINE]
Log MBC [4]: 1.77

CCCCCCO [1-HEXANOL]
Log LC50 [3]: -0.315 | Log MBC [4]: 0.56

CCOC(C)=O [ETHYL ACETATE]
Log C [2]: -1.502

Nc1ccccc1 [ANILINE]
Log MBC [4]: 1.3

CCCCOC(C)=O [ACETIC ACID BUTYL ESTER]
Log C [2]: -2.374

Cc1ccc(C(C)C)c(O)c1 [THYMOL]
Log C [2]: -3.574 | Log MBC [4]: -0.52

CCCCCl [BUTYL CHLORIDE]
Log LC50 [5]: 3.02

CCC(=O)CC
Log C [2]: -1.861

ClC(Cl)(Cl)Cl [CARBON TETRACHLORIDE]
Log EC50 [6]: -0.22

O=C1CCCC1 [CYCLOPENTANONE]
Log LC50 [3]: -1.359

Cc1cccc(C)c1 [M-XYLENE]
Log LC50 [5]: 2.55

Clc1cc(Cl)c(Cl)cc1Cl
Log LC50 [5]: 0.15

CC(=O)c1ccccc1 [ACETOPHENONE]
Log C [2]: -2.891

c1ccc2c(c1)ccc1ccccc12
Log C [2]: -5.791

C=CCCC
Log C [2]: -2.364

Clc1cc(Cl)c(Cl)c(Cl)c1
Log LC50 [5]: 0.57

Clc1cccc(Cl)c1Cl
Log LC50 [5]: 1.11

COC=O [FORMIC ACID METHYL ESTER]
Log C [2]: -1.075

CCO [ALCOHOL]
Log C [2]: -0.484 | Log LC50 [5]: 5.38 | Log MBC [4]: 2.75

CCCOC(C)=O [ACETIC ACID PROPYL ESTER]
Log C [2]: -1.969

CCCCO [BUTYL ALCOHOL]
Log C [2]: -1.463 | Log LC50 [3]: -1.432 | Log MBC [4]: 1.78

CCC(C)(C)O [AMYLENE HYDRATE]
Log C [2]: -1.859 | Log LC50 [3]: -0.907

Clc1ccccc1 [CHLOROBENZENE]
Log LC50 [5]: 2.23

CC(C)O [ISOPROPYL ALCOHOL]
Log LC50 [1]: 5.07 | Log C [2]: -0.977 | Log LC50 [3]: -2.005 | Log MBC [4]: 2.55

CCOC(=O)C(C)C
Log C [2]: -2.3

CCCCC(=O)OCC
Log C [2]: -2.716

ClC(Cl)Cl [CHLOROFORM]
Log C [2]: -3.065 | Log MBC [4]: 1.5

CC(C)=O [ACETONE]
Log LC50 [1]: 5.04 | Log C [2]: -0.924 | Log LC50 [3]: -2.259 | Log MBC [4]: 2.6

Oc1ccccc1 [PHENOL]
Log LC50 [3]: -0.256 | Log MBC [4]: 1

CCCCOC(=O)CCCC
Log C [2]: -3.504

CCCCOCCCC
Log LC50 [3]: -0.303

CCC(C)O (stereo not given) [BUTANOL]
Log C [2]: -1.433 | Log LC50 [3]: -1.477

c1ccc2ncccc2c1 [QUINOLINE]
Log MBC [4]: 0.3

CCCC(=O)OCC
Log C [2]: -2.367

CCCCCOC(C)=O [ACETIC ACID PENTYL ESTER]
Log C [2]: -2.727

CC#N [ACETONITRILE]
Log LC50 [3]: -2.227

OCc1ccccc1 [BENZYL ALCOHOL]
Log MBC [4]: 1.3

CCCC(C)=O
Log C [2]: -1.785

CCC(O)CC [3-PENTANOL]
Log LC50 [5]: 4.05

CC(C)CO [ISOBUTANOL]
Log LC50 [3]: -1.43

ClC=C(Cl)Cl [TRICHLOROETHYLENE]
Log LC50 [3]: -0.293

ClCCCl [1,2-DICHLOROETHANE]
Log C [2]: -2.374

CC(=O)OCC(C)C [ACETIC ACID ISOBUTYL ESTER]
Log C [2]: -2.33

Cc1ccccc1 [TOLUENE]
Log LC50 [5]: 2.87 | Log MBC [4]: 1

Clc1cc(Cl)cc(Cl)c1 [1,3,5-TRICHLOROBENZENE]
Log LC50 [5]: 1.26

CC(Cl)(Cl)Cl [TRICHLOROETHANE]
Log LC50 [5]: 2.85 | Log LC50 [3]: -0.087

CO [METHYL ALCOHOL]
Log C [2]: 0.17 | Log MBC [4]: 3.09

CCCCC(C)O (stereo not given) [2-HEXANOL]
Log LC50 [3]: -0.359

CCCCCCCO [1-HEPTANOL]
Log LC50 [3]: -0.163 | Log MBC [4]: 0.2

Oc1ccc2ccccc2c1 [BETANAPHTHOL]
Log MBC [4]: 0

CCCCC [PENTANE]
Log C [2]: -2.649

CCOC=O [ETHOXYCARBONYL GROUP]
Log C [2]: -1.111

c1ccccc1 [BENZENE]
Log LC50 [1]: 2.91 | Log C [2]: -2.905 | Log LC50 [3]: -0.417

Cc1ccccc1C [O-XYLENE]
Log C [2]: -3.44 | Log LC50 [5]: 2.52

Cc1cccc(O)c1 [METACRESOL]
Log LC50 [3]: -0.694

CC(C)(C)O [TERT-BUTANOL]
Log C [2]: -1.429

CCCC(C)O (stereo not given) [2-PENTANOL]
Log C [2]: -1.861

COc1ccccc1 [ANISOLE]
Log C [2]: -2.493 | Log LC50 [3]: -0.305

CCCCCCCCO [OCTANOL]
Log C [2]: -3.148 | Log LC50 [3]: -0.594 | Log MBC [4]: -0.016

O=[N+]([O-])c1ccccc1 [NITROBENZENE]
Log LC50 [3]: -0.263 | Log MBC [4]: 0.47

CCC(C)=O [BUTANONE]
Log C [2]: 1.401 | Log LC50 [3]: -1.663

CCOC(=O)CC [ETHYL PROPIONATE]
Log C [2]: -1.898

ClC(Cl)C(Cl)Cl [1,1,2,2-TETRACHLOROETHANE]
Log LC50 [5]: 2.34
